Here are results for one molecule from US20160215348A1, “GENE EXPRESSION BIOMARKERS AND THEIR USE FOR DIAGNOSTIC AND PROGNOSTIC APPLICATION IN PATIENTS POTENTIALLY IN NEED OF HDAC INHIBITOR TREATMENT” (4SC AG, priority 2013, published 2016).

Data set [1] can be described thus: Dose escalation 100-800 mg in cancer patients, dose-limiting toxicity. It is filed as in vivo, human. The following applies: highest dose group (800 mg); one patient within the first 3 patients. Here is the method:
HDAC enzyme activity, H4 Histone acetylation and gene expression of a group of genes were measured in the dose groups 100 mg, 200 mg, 400 mg, 600 mg and 800 mg. Each group consisted of 3 patients with different types of tumors. The highest dose group consisted of 6 patients due to a dose-limiting toxicity [DLT] […] The treatment cycles were as detailed for the SAPHIRE, SHELTER and SHORE clinical trials described herein below.

For the next data set, the system named is 18S. Description: Gene expression in HepG2 cancer cells (in vitro). It is filed as cell-based, human. Conditions: standardized to 0 h. The procedure:
(§1) Hatched columns relate to blood, black columns relate to HepG2 cells, white boxes relate to HT 29 cells. Values are standardized to the value at 0 h.
(§2) Samples were obtained and gene expressions were determined with the methods as described herein below. The results are shown in below table 3 and FIGS. 2 and 3
(§3) The above values represent a mean value which was determined on the basis of 2 biological replicates, for each of which 3 technical replicates were prepared. […] The level of gene expression determined in peripheral blood samples can be correlated with a certain level of activity of HDAC in the diseased cells, e.g. by applying an appropriate conversion factor or conversion table, which may be determined for each specific disease, and/or patient group.
(§4) To determine RNA expression levels of ZFP64 in different cancer cell lines and PBMC, the cell membranes were chemically disrupted with a buffer containing guanidine isothiocycanate, which lyses the cells and supports the binding of RNA to a silica membrane and RNA was extracted via a filter-based spin column.
(§5) The High-Capacity cDNA Reverse Transcription Kit (Applied Biosystems) was used for reverse transcription of total RNA into single stranded cDNA with the aid of random hexamer primers according to the manufacturer's instructions. Briefly, for the reaction mix total RNA was mixed with random primers in excess, 4 mM dNTP Mix, 2.5 U/reaction, reverse transcriptase and nuclease free water. The reverse transcription took place in a thermal cycler under the following conditions: 25° C. for 10 min, 37° C. for 120 min, 85° C. for 5 min, followed by 4° C. for cooling down the reaction. The reverse transcription can be done in principle as well with other reverse transcriptases, primers and temperature protocols. Whenever possible, 250 ng total RNA were reverse transcribed if not available, lower amounts were used.
(§6) Custom TaqMan® Arrays (Applied Biosystems) in Format 16 were designed for the gene expression analysis of biomarkers of the present invention and housekeeping genes as outlined in table 4. These arrays allow for qPCR analysis of 8 samples per card. Of course, all reactions can be done as well by conventional qPCR analysis with specific primers.

Another data set has as its system CCDC43. Description: Gene expression in HepG2 cancer cells (in vitro). It counts as cell-based, human. Conditions: standardized to 0 h. The procedure: as §1, §2, §3, §4, §5, §6
The next data set deals with DPP3. Description: Gene expression in HepG2 cancer cells (in vitro). Conditions: standardized to 0 h. It counts as cell-based, human. Here is the method:
as §1, §2, §3, §4, §5, §6

In the next data set the test system is GAPDH. Briefly: Gene expression in HepG2 cancer cells (in vitro). It is filed as cell-based, human. Conditions: standardized to 0 h. Here is the method: as §1, §2, §3, §4, §5, §6
The subject of the next data set is HIST2H4A/B. Description: Gene expression in HepG2 cancer cells (in vitro). Conditions: standardized to 0 h. It is filed as cell-based, human. Here is the method: as §1, §2, §3, §4, §5, §6
For another data set, the system named is KDELC2. Description: Gene expression in HepG2 cancer cells (in vitro). It counts as cell-based, human. The following applies: standardized to 0 h. Here is the method:
as §1, §2, §3, §4, §5, §6

The next data set has as its system MICALL1. Briefly: Gene expression in HepG2 cancer cells (in vitro). It counts as cell-based, human. Conditions: standardized to 0 h. Here is the method: as §1, §2, §3, §4, §5, §6
The next data set has as its system TBP. Briefly: Gene expression in HepG2 cancer cells (in vitro). Conditions: standardized to 0 h. It is filed as cell-based, human. The procedure: as §1, §2, §3, §4, §5, §6
For data set [2], the system named is ZFP64. Briefly: Gene expression in HepG2 cancer cells (in vitro). It is filed as cell-based, human. The following applies: standardized to 0 h. Here is the method: as §1, §2, §3, §4, §5, §6
The subject of data set [3] is ZFP64. Briefly: Nuclear protein extraction and Western blot, HepG2 cells. It is filed as cell-based, human. The following applies: 5 μM, 24 h, vs 0.1% DMSO. Here is the method: After isolating nuclear fractions, ZFP64 protein levels were detected by Western Blot analysis. Histone H3 serves as nuclear loading control.
4 h upon seeding, HepG2 cells were treated with either 0.1% DMSO or 5 μM resminostat.
24 h upon resminostat treatment, cells were washed once with PBS before scraping and harvesting in cold PBS and transferring the cells into pre-chilled 15 ml falcon tubes. […]
From each nuclear sample 4.4 μg protein (measured via BCA protein assay) were added to the same amount of Tricine buffer (supplemented with B-Mercaptoethanol), heated at 95° C. for 5 min and then placed on ice. […]
The next day, after washing four times with Washing Buffer, membranes were incubated for 1 h with the corresponding horseradish peroxidase-conjugated anti-rabbit IgG secondary antibody at a dilution of 1/50.000 and anti-Biotin at a dilution of 1/1.000 (diluted in 10 ml 1/10 diluted SuperBlock T20 Blocking Buffer). After washing four times with Washing Buffer, HRP signals were detected using enhanced chemoluminescence and exposed to X-ray films. Subsequently, the films were scanned using the Gel Doc 2000 and the corresponding signals were quantified with the “Quantity One” Software (BioRad).
(A western blot detects proteins with antibodies after separation by electrophoresis.)

SMILES strings stand for the structures.

Regarding `CN(C)Cc1ccc(S(=O)(=O)n2ccc(/C=C/C(=O)NO)c2)cc1` [resminostat, (E)-3-(1-(4-((dimethylamino)methyl)phenylsulfonyl)-1H-pyrrol-3-yl)-N-hydroxyacrylamide], the “Dose-limiting toxicity [DLT]” value in [1] is “fatigue and nausea grade 3”. For the same molecule, the “Expression level, 18s (housekeeping gene)” value was determined as 0.91 in the data set on 18S (2 h) and 0.87 in the data set on 18S (5 h). The “Expression level, CCDC43” value with CCDC43 (2 h) was found to be 0.70; in the data set with CCDC43 (5 h), 0.46. The “Expression level, DPP3” value in the data set on DPP3 (2 h) came to 0.86; in the data set on DPP3 (5 h), 0.72. The entries for the “Expression level, GAPDH (housekeeping gene)” value in the data set with GAPDH (2 h) and in the data set with GAPDH (5 h) were 0.96 and 1.03, respectively. Also, the “Expression level, HIST2H4A/B” value in the data set on HIST2H4A/B (2 h) was 0.88; in the data set on HIST2H4A/B (5 h), 1.17. Further, the “Expression level, KDELC2” value in the data set with KDELC2 (2 h) was found to be 0.84; in the data set with KDELC2 (5 h), 0.54. The “Expression level, MICALL1” value was determined as 0.85 in the data set on MICALL1 (2 h) and 0.50 in the data set with MICALL1 (5 h). For the same molecule, the “Expression level, TBP (housekeeping gene)” value with TBP (2 h) is given as 1.15; with TBP (5 h), 1.12. The “Expression level, ZFP64” value is reported as 0.46 in the data set with ZFP64 [2] (2 h) and 0.19 in the data set with ZFP64 [2] (5 h). Also, the “ZFP64 nuclear protein levels (Western Blot)” value in the data set on ZFP64 [3] is given as “diminished”.
